Test results as given in patent US20190358369A1, “Drug releasing coatings for medical devices and methods of making same” (BIOTRONIK AG, priority 2016, published 2019).
Where two headings read alike, the source gives them in different places. Blank lines part the entries; values can stand above or below the molecule they belong to.

Experiments:
[1] = molecular target: bovine serum albumin (BSA) (Bos taurus, UniProt P02769); test: Albumin binding by ammonium sulfate precipitation and LCMS; format: in vitro ADME; settings: bovine serum albumin (BSA) solution, 10 uM drug, 1.4 mg/mL BSA in normal saline, 30 minutes ambient, supernatant, average of four separate days
Protocol: Sirolimus-albumin binding has previously been reported. […] The drug spiked BSA solutions were mixed by inversion and allowed to equilibrate at ambient temperature for 30 minutes to allow drug binding to the albumin protein. 826 mg ammonium sulfate was next added to each sample and mixed by gentle inversion until the salt had completely dissolved and precipitate formed. Samples were then vortexed for 20 seconds then centrifuged for 6.5 minutes at 7200×g. To both supernatant and separated precipitate 0.750 mL methanol and 0.250 mL acetonitrile containing internal standard was added to each sample. Samples were tested for drug content by LCMS where the supernatant amount represents unbound drug and the precipitate amount the bound drug. Recovery verifiction tests were performed as above but using solutions of saline plus drug without BSA.
Values reported are the average of a separate test on each of four separate days.

[2] = Porcine Coronary Arteries, from US 2014/0046254, cited from earlier work

Sequence of bovine serum albumin (BSA) (P02769 25-607): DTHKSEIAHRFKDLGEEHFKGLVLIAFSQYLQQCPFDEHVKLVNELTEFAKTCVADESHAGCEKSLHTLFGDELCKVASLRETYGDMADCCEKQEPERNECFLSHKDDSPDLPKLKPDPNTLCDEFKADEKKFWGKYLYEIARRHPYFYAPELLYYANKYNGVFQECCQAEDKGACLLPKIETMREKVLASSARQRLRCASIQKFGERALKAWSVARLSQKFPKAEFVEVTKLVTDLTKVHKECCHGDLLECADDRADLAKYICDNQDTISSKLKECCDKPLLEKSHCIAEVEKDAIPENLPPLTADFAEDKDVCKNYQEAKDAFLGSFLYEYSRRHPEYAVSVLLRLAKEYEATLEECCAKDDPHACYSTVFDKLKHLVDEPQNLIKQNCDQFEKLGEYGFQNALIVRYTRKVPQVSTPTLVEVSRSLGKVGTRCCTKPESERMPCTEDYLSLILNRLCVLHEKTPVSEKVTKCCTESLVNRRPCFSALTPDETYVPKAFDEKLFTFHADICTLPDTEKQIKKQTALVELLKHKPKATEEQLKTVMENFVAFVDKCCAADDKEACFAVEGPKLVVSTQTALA

fraction unbound at 30 min, 10 uM [1]: 0.062
SMILES: CO[C@H]1C[C@@H]2CC[C@@H](C)[C@@](O)(O2)C(=O)C(=O)N2CCCC[C@H]2C(=O)O[C@H]([C@H](C)C[C@@H]2CC[C@@H](O)[C@H](OC)C2)CC(=O)[C@H](C)/C=C(\C)[C@@H](O)[C@@H](OC)C(=O)[C@H](C)C[C@H](C)/C=C/C=C/C=C/1C [Sirolimus]

SMILES: CO[C@H]1C[C@@H]2CC[C@@H](C)[C@@](O)(O2)C(=O)C(=O)N2CCCC[C@H]2C(=O)O[C@H]([C@H](C)C[C@@H]2CC[C@@H](OCCO)[C@H](OC)C2)CC(=O)[C@H](C)/C=C(\C)[C@@H](O)[C@@H](OC)C(=O)[C@H](C)C[C@H](C)/C=C/C=C/C=C/1C [US 2014/0046254 Everolimus, Everolimus]
Normalized Uptake (ng drug/mg tissue/μg drug on balloon) ([2]; 3 days): 0.02 ng/mg/µg

SMILES: CO[C@H]1C[C@@H]2CC[C@@H](C)[C@@](O)(O2)C(=O)C(=O)N2CCCC[C@H]2C(=O)O[C@H]([C@H](C)C[C@@H]2CC[C@H](n3cnnn3)[C@H](OC)C2)CC(=O)[C@H](C)/C=C(\C)[C@@H](O)[C@@H](OC)C(=O)[C@H](C)C[C@H](C)/C=C/C=C/C=C/1C [US 2014/0046254 Zotarolimus, Zotarolimus]
Normalized Uptake (ng drug/mg tissue/μg drug on balloon) ([2]; 7 days): 0.04 ng/mg/µg
